Substitutions are numbered along the chain they refer to.
What was measured:
BdUGT5g03300 = target: T1, BdUGT5g03300 (Brachypodium distachyon, UniProt I1IW79); assay type: biochemical
T1 sequence (I1IW79 1-469): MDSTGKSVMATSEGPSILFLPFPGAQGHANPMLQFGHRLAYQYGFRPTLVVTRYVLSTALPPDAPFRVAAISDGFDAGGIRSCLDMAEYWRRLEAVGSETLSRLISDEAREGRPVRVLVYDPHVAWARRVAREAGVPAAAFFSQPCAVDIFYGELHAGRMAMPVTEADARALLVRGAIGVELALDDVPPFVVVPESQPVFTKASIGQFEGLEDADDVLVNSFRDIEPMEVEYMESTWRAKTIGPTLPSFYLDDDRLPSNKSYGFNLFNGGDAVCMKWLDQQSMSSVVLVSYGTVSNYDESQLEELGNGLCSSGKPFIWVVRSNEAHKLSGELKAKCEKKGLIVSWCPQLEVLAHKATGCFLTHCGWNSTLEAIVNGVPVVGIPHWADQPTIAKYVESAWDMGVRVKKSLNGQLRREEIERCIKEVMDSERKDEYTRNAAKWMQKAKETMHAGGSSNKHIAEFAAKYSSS

B. distachyon Bd21-3 = test system: B. distachyon Bd21-3; parameters: species or system Brachypodium distachyon; details: in vivo
OsUGT79 = target: T2, OsUGT79 (Oryza sativa subsp. japonica, UniProt Q7XT97); assay: biochemical; assay type: biochemical
T2 construct: made in house; host or cells: E. coli
T2 sequence (Q7XT97 1-466): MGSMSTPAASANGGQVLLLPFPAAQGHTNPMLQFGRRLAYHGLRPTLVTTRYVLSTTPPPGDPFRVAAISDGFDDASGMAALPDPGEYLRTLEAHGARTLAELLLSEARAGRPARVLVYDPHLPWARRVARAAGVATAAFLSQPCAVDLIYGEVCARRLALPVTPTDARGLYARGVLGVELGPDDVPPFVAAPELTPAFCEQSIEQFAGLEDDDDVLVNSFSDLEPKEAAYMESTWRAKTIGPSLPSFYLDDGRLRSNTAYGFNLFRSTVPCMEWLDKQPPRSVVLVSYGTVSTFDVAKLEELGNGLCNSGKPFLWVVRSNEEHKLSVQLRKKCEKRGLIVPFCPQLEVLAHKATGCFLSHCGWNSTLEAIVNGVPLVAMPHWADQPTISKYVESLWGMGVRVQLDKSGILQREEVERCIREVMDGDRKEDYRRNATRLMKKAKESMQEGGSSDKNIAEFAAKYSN

OsUGT79 Q202A = target: T3, OsUGT79 Q202A (Oryza sativa subsp. japonica, UniProt Q7XT97, Q202A); assay: biochemical; assay type: biochemical
T3 sequence (Q7XT97 1-466 Q202A): T2 sequence (Q7XT97 1-466) with Q202A

[1] = target: T4, OsUGT79 H122A/L123A/Q202A (Oryza sativa subsp. japonica, UniProt Q7XT97, H122A/L123A/Q202A); assay type: biochemical
T4 sequence (Q7XT97 1-466 H122A/L123A/Q202A): T2 sequence (Q7XT97 1-466) with H122A, L123A, Q202A

[2] = read-out: Glucosylation rate of DON, percentage of the control

CC1(C)CCC[C@]2(C)[C@@H]3[C@H]1[C@@H](O)[C@@]2(C)C[C@H]3O [CUL, culmorin]
Increase of apparent KM with DON (BdUGT5g03300): ~50 fold
K ic of CUL (competitive inhibition, DON as variable substrate) (BdUGT5g03300): low µM range
K iu of CUL (uncompetitive inhibition, UDP-glucose as variable substrate) (BdUGT5g03300): 1.4 µM
Ki (BdUGT5g03300; read-out: K ic of CUL (competitive inhibition, DON as variable substrate)): < 1000 nM
Kd (BdUGT5g03300; read-out: KD of CUL at the acceptor binding site (implied by kinetics)): ~1000 nM
Effect of CUL alone on root length (B. distachyon Bd21-3): did not elicit any significant effect
Effect of CUL with 2 mg l^−1 DON on root length (B. distachyon Bd21-3): clear dose-dependent synergistic effect
CUL glucosylation rate compared with DON (OsUGT79): 1–2%
Specific activity (glucoside formation) (OsUGT79): 1.85 ± 0.05 nmol/min/mg
remaining activity at 25 µM (OsUGT79; [2]): 64 ± 3%
remaining activity at 125 µM (OsUGT79; [2]): 33 ± 4%
K iu of CUL (uncompetitive inhibition, DON as variable substrate) (OsUGT79 Q202A): 56 µM
Ki (OsUGT79 Q202A): 16000 nM
Specific activity (glucoside formation) [1]: 2.89 ± 0.10 nmol/min/mg

Reference: publication PMC13415951 (Journal of Experimental Botany, 2026)
